Source: patent publication US9340554B2, “IRAK inhibitors and uses thereof” (Nimbus Iris, Inc., priority 2011, dated 2016)
Where two headings read alike, the source gives them in different places.

Biological target: T1, IRAK4 (Homo sapiens, UniProt Q9NWZ3)
T1 construct: purchased CARNA Bioscience 09-145
T1 sequence (Q9NWZ3 1-460): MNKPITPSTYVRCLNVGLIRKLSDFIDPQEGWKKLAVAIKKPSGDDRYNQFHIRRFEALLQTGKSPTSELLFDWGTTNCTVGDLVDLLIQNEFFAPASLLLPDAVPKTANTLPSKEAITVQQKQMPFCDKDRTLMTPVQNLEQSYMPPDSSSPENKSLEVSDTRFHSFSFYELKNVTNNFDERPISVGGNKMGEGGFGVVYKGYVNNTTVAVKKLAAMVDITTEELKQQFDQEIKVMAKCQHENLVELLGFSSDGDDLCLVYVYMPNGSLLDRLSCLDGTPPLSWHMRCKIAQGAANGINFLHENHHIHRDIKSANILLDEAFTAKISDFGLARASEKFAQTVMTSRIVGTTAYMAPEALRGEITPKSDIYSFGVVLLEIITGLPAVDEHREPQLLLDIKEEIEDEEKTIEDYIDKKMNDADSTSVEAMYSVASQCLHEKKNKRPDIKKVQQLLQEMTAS
Assay: IRAK-4 activity inhibition assay (Caliper, Peptide 8, 37 μM ATP)
Format: biochemical
Conditions: 28° C. 40 minutes

[1] = 3.5 nM IRAK4, 1.5 μM Peptide 8, 37 μM ATP, read-out: IRAK-4 activity inhibition IC50

Row | SMILES | IC50 [1] [µM] | IC50 (IRAK-4 activity inhibition IC50, 3.5 nM IRAK4, 1.5 μM Peptide 8, 37 μM ATP) [µM]
1 | O=C(CN(CC(=O)N1CCCC1)[C@H]1CC[C@H](Nc2ncnc3sc4c(c23)CCC4)CC1)N1CCCC1 [Compound I-136, trans-2-[[2-oxo-2-(pyrrolidin-1-yl)ethyl][4-([7-thia-9,11-diazatricyclo[6.4.0.0[2,6]]dodeca-1(8),2(6),9,11-tetraen-12-yl]amino)cyclohexyl]amino]-1-(pyrrolidin-1-yl)ethan-1-one] | 5 to 20 | 
2 | O=C(CN(CC(=O)N1CCCC1)[C@H]1CC[C@H](Oc2ncnc3sc4c(c23)CCC4)CC1)N1CCCC1 [Compound I-137, trans-2-[[2-oxo-2-(pyrrolidin-1-yl)ethyl](4-[7-thia-9,11-diazatricyclo[6.4.0.0[2,6]]dodeca-1(8),2(6),9,11-tetraen-12-yloxy]cyclohexyl)amino]-1-(pyrrolidin-1-yl)ethan-1-one] | 5 to 20 | 
3 | FC(F)(F)CN[C@H]1CC[C@H](Nc2ncnc3sc4c(c23)CCC4)CC1 [Compound I-138, 1-N-[7-thia-9,11-diazatricyclo[6.4.0.0^[2,6]]dodeca-1(8),2(6),9,11-tetraen-12-yl]-4-N-(2,2,2-trifluoroethyl)cyclohexane-1,4-diamine] | 5 to 20 | 
4 | C[N+](C)(C)[C@H]1CC[C@H](Nc2ncnc3sc4c(c23)CCC4)CC1 [Compound I-139, (1r,4r)-4-((6,7-dihydro-5H-cyclopenta[4,5]thieno[2,3-d]pyrimidin-4-yl)amino)-N,N,N-trimethylcyclohexanaminium iodide] |  | 20 to 50
5 | c1nc(OCCN2CCNCC2)c2c3c(sc2n1)CCC3 [Compound I-140, 4-(2-(piperazin-1-yl)ethoxy)-6,7-dihydro-5H-cyclopenta[4,5]thieno[2,3-d]pyrimidine] | 20 to 50 | 
6 | CN(C)CC1CC(Oc2ncnc3sc4c(c23)CCC4)C1 (stereo not drawn) [Compound I-141, 1-(3-((6,7-dihydro-5H-cyclopenta[4,5]thieno[2,3-d]pyrimidin-4-yl)oxy)cyclobutyl)-N,N-dimethylmethanamine] | 5 to 20 | 
7 | OCC(CO)Nc1ncnc2sc3c(c12)CCC3 [Compound I-145] | 20 to 50 | 
8 | c1nc(NCCN2CCNCC2)c2c3c(sc2n1)CCC3 [Compound I-147, N-(2-(piperazin-1-yl)ethyl)-6,7-dihydro-5H-cyclopenta[4,5]thieno[2,3-d]pyrimidin-4-amine] | > 50 | 
9 | CN(C)[C@H]1CC[C@H](COc2ncnc3sc4c(c23)CCC4)CC1 [Compound I-148, (1r,4r)-4-(((6,7-dihydro-5H-cyclopenta[4,5]thieno[2,3-d]pyrimidin-4-yl)oxy)methyl)-N,N-dimethylcyclohexanamine] | 20 to 50 | 
10 | CN(C)CCN1CCN(c2ncnc3sc4c(c23)CCC4)CC1 [Compound I-150, 2-(4-(6,7-dihydro-5H-cyclopenta[4,5]thieno[2,3-d]pyrimidin-4-yl)piperazin-1-yl)-N,N-dimethylethanamine] | 20 to 50 | 
11 | C[C@@H](Nc1ncnc2sc3c(c12)CCC3)C(=O)O [Compound I-153] | > 50 | 
12 | N[C@H]1CC[C@@H](Nc2ncnc3sc4c(c23)CCC4)CC1 [Compound I-154, (1s,4s)-N1-(6,7-dihydro-5H-cyclopenta[4,5]thieno[2,3-d]pyrimidin-4-yl)cyclohexane-1,4-diamine] | 5 to 20 | 
13 | CN[C@H]1CC[C@@H](Nc2ncnc3sc4c(c23)CCC4)CC1 [Compound I-156, (1s,4s)-1-N-methyl-4-N-[7-thia-9,11-diazatricyclo[6.4.0.0^[2,6]]dodeca-1(12),2(6),8,10-tetraen-12-yl]cyclohexane-1,4-diamine] | 20 to 50 | 
14 | c1nc(N[C@H]2CC[C@@H](N3CCC3)CC2)c2c3c(sc2n1)CCC3 [Compound I-159, N-((1s,4s)-4-(azetidin-1-yl)cyclohexyl)-6,7-dihydro-5H-cyclopenta[4,5]thieno[2,3-d]pyrimidin-4-amine] | 20 to 50 | 
15 | c1nc(N[C@H]2CC[C@@H](N3CCOCC3)CC2)c2c3c(sc2n1)CCC3 [Compound I-160, N-((1s,4s)-4-morpholinocyclohexyl)-6,7-dihydro-5H-cyclopenta[4,5]thieno[2,3-d]pyrimidin-4-amine] | 5 to 20 | 
16 | CC(C)N[C@H]1CC[C@@H](Nc2ncnc3sc4c(c23)CCC4)CC1 [Compound I-161] | > 50 | 
17 | CN(Cc1cccc(C(=O)O)c1)[C@H]1CC[C@H](Nc2ncnc3sc4c(c23)CCC4)CC1 [Compound I-167, 3-([methyl[4-([7-thia-9,11-diazatricyclo[6.4.0.0^[2,6]]dodeca-1(8),2(6),9,11-tetraen-12-yl]amino)cyclohexyl]amino]methyl)benzoic acid] | < 5 | 

More lines, now with the values ahead:

Row | IC50 [1] [µM] | IC50 (IRAK-4 activity inhibition IC50, 3.5 nM IRAK4, 1.5 μM Peptide 8, 37 μM ATP) [µM] | SMILES
18 | < 5 |  | CN(C1CCOCC1)[C@H]1CC[C@H](Nc2ncnc3sc4c(c23)CCC4)CC1 [Compound I-132, 1-N-methyl-1-N-(oxan-4-yl)-4-N-[7-thia-9,11-diazatricyclo[6.4.0.0[2,6]]dodeca-1(8),2(6),9,11-tetraen-12-yl]cyclohexane-1,4-diamine]
19 | < 5 |  | O=C(CN[C@H]1CC[C@H](Nc2ncnc3sc4c(c23)CCC4)CC1)N1CCCC1 [Compound I-134, trans-1-(pyrrolidin-1-yl)-2-[[4-([7-thia-9,11-diazatricyclo[6.4.0.0[2,6]]dodeca-1(8),2(6),9,11-tetraen-12-yl]amino)cyclohexyl]amino]ethan-1-one]
20 | < 5 |  | O=C(CN[C@H]1CC[C@H](Oc2ncnc3sc4c(c23)CCC4)CC1)N1CCCC1 [Compound I-135, trans-1-(pyrrolidin-1-yl)-2-[(4-[7-thia-9,11-diazatricyclo[6.4.0.0[2,6]]dodeca-1(8),2(6),9,11-tetraen-12-yloxy]cyclohexyl)amino]ethan-1-one]
21 | < 5 |  | c1nc(N[C@H]2CC[C@H](N3CCCC3)CC2)c2c3c(sc2n1)CCC3 [Compound I-142, N-((1r,4r)-4-(pyrrolidin-1-yl)cyclohexyl)-6,7-dihydro-5H-cyclopenta[4,5]thieno[2,3-d]pyrimidin-4-amine]
22 | < 5 |  | c1nc(N[C@H]2CC[C@H](N3CCCCC3)CC2)c2c3c(sc2n1)CCC3 [Compound I-143, N-((1r,4r)-4-(piperidin-1-yl)cyclohexyl)-6,7-dihydro-5H-cyclopenta[4,5]thieno[2,3-d]pyrimidin-4-amine]
23 | < 5 |  | CN(C)[C@H]1CC[C@H](N(C)c2ncnc3sc4c(c23)CCC4)CC1 [Compound I-144, (1r,4r)-N1-(6,7-dihydro-5H-cyclopenta[4,5]thieno[2,3-d]pyrimidin-4-yl)-N1,N4,N4-trimethylcyclohexane-1,4-diamine]
24 | < 5 |  | CN[C@H]1CC[C@H](N(C)c2ncnc3sc4c(c23)CCC4)CC1 [Compound I-146, (1r,4r)-N1-(6,7-dihydro-5H-cyclopenta[4,5]thieno[2,3-d]pyrimidin-4-yl)-N1,N4-dimethylcyclohexane-1,4-diamine]
25 | < 5 |  | c1nc(N[C@H]2CC[C@H](N3CCOCC3)CC2)c2c3c(sc2n1)CCC3 [Compound I-149, N-((1r,4r)-4-morpholinocyclohexyl)-6,7-dihydro-5H-cyclopenta[4,5]thieno[2,3-d]pyrimidin-4-amine]
26 | < 5 |  | CN(Cc1ccccc1)[C@H]1CC[C@H](Nc2ncnc3sc4c(c23)CCC4)CC1 [Compound I-151, (1r,4r)-N1-benzyl-N4-(6,7-dihydro-5H-cyclopenta[4,5]thieno[2,3-d]pyrimidin-4-yl)-N1-methylcyclohexane-1,4-diamine]
27 | < 5 |  | CC(C)N[C@H]1CC[C@H](Nc2ncnc3sc4c(c23)CCC4)CC1 [Compound I-157, 1-N-(propan-2-yl)-4-N-[7-thia-9,11-diazatricyclo[6.4.0.0^[2,6]]dodeca-1(8),2(6),9,11-tetraen-12-yl]cyclohexane-1,4-diamine]
28 | < 5 |  | c1nc(N[C@H]2CC[C@H](N3CCC3)CC2)c2c3c(sc2n1)CCC3 [Compound I-158, N-[4-(azetidin-1-yl)cyclohexyl]-7-thia-9,11-diazatricyclo[6.4.0.0^[2,6]]dodeca-1(8),2(6),9,11-tetraen-12-amine]
29 | < 5 |  | CN(Cc1ccncc1)[C@H]1CC[C@H](Nc2ncnc3sc4c(c23)CCC4)CC1 [Compound I-162]
30 | < 5 |  | CN(Cc1cccnc1)[C@H]1CC[C@H](Nc2ncnc3sc4c(c23)CCC4)CC1 [Compound I-163, 1-N-methyl-1-N-(pyridin-3-ylmethyl)-4-N-[7-thia-9,11-diazatricyclo[6.4.0.0^[2,6]]dodeca-1(12),2(6),8,10-tetraen-12-yl]cyclohexane-1,4-diamine]
31 | < 5 |  | CN(Cc1ccc(C(N)=O)cc1)[C@H]1CC[C@H](Nc2ncnc3sc4c(c23)CCC4)CC1 [Compound I-164, 4-([methyl[4-([7-thia-9,11-diazatricyclo[6.4.0.0^[2,6]]dodeca-1(8),2(6),9,11-tetraen-12-yl]amino)cyclohexyl]amino]methyl)benzamide]
32 | < 5 |  | CN(Cc1cccc(CO)c1)[C@H]1CC[C@H](Nc2ncnc3sc4c(c23)CCC4)CC1 [Compound I-165, [3-([methyl[4-([7-thia-9,11-diazatricyclo[6.4.0.0^[2,6]]dodeca-1(8),2(6),9,11-tetraen-12-yl]amino)cyclohexyl]amino]methyl)phenyl]methanol]
33 | < 5 |  | CN(Cc1cccc(C(N)=O)c1)[C@H]1CC[C@H](Nc2ncnc3sc4c(c23)CCC4)CC1 [Compound I-166, 3-((((1r,4r)-4-((6,7-dihydro-5H-cyclopenta[4,5]thieno[2,3-d]pyrimidin-4-yl)amino)cyclohexyl)(methyl)amino)methyl)benzamide]
